Data reported in publication PMC4648050, “Discovery of Inhibitors of Trypanosoma brucei by Phenotypic Screening of a Focused Protein Kinase Library” (Chemmedchem, 2015).

Assays:
Assay type in all cases: biochemical, human/mammalian
Details in all cases: compound at 10 μM, read-out: % of activity respect of the control
[1] = molecular target: JNK1 (Homo sapiens, UniProt P45983); experiment: Kinase panel: JNK1
Procedure: (§1) The DDU kinase-focused compound set contains lead-like scaffolds that are designed to target protein kinases; they have kinase hinge binding motifs. Four of the 1H-imidazopyrazinones were screened against a human/mammalian kinase panel at the University of Dundee (http://www.kinase-screen.mrc.ac.uk) at a concentration of 10 μM. At the time of testing the panel contained 79 mammalian kinases selected to provide a broad coverage of the mammalian kinome (∼500 kinases in the human genome).[3] None of the compounds were active against any of the kinases at 10 μM.

[2] = molecular target: CAMKKb (Homo sapiens, UniProt Q96RR4); experiment: Kinase panel: CAMKKb
Procedure: as §1

[3] = molecular target: T1, CHK1 (Homo sapiens, UniProt O14757); experiment: Kinase panel: CHK1
T1 sequence (O14757 1-476): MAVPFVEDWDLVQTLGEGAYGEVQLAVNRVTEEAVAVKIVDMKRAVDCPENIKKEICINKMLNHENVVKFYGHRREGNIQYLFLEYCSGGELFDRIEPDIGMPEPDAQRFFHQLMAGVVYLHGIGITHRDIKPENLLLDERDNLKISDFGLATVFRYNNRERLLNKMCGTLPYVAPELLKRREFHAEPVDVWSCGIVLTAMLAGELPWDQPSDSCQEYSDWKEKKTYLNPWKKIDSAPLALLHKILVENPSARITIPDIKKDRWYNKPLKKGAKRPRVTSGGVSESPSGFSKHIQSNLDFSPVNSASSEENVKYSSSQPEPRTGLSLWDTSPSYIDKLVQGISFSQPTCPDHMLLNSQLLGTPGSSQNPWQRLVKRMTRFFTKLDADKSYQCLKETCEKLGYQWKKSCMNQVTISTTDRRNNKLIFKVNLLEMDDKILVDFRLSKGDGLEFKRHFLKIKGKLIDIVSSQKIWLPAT
Procedure: as §1

[4] = molecular target: T2, BRSK2 (Homo sapiens, UniProt Q8IWQ3); experiment: Kinase panel: BRSK2
T2 sequence (Q8IWQ3 1-736): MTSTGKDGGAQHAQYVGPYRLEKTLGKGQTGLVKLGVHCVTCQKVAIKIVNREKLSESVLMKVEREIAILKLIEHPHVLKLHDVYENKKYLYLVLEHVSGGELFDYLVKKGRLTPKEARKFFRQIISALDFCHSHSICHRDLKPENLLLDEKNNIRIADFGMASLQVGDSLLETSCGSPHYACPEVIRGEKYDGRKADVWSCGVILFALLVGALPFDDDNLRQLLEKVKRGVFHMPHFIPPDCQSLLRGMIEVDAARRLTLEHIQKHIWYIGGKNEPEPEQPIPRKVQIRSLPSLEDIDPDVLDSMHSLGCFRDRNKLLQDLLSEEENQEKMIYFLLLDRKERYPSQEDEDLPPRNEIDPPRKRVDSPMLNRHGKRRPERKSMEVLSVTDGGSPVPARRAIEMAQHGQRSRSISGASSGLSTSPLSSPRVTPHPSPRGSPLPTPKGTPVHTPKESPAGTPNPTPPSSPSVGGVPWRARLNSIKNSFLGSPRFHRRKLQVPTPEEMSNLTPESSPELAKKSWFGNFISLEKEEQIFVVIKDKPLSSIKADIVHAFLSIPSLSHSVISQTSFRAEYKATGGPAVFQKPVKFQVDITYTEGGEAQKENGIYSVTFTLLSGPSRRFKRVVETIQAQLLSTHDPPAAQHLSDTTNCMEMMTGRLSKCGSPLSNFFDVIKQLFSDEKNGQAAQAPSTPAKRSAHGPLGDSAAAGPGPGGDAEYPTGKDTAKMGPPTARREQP
Procedure: as §1

[5] = molecular target: PIM1 (Homo sapiens, UniProt P11309); experiment: Kinase panel: PIM1
Procedure: as §1

[6] = molecular target: PAK6 (Homo sapiens, UniProt Q9NQU5); experiment: Kinase panel: PAK6
Procedure: as §1

[7] = molecular target: T3, EPH-B3 (Homo sapiens, UniProt P54753); experiment: Kinase panel: EPH-B3
T3 sequence (P54753 34-998): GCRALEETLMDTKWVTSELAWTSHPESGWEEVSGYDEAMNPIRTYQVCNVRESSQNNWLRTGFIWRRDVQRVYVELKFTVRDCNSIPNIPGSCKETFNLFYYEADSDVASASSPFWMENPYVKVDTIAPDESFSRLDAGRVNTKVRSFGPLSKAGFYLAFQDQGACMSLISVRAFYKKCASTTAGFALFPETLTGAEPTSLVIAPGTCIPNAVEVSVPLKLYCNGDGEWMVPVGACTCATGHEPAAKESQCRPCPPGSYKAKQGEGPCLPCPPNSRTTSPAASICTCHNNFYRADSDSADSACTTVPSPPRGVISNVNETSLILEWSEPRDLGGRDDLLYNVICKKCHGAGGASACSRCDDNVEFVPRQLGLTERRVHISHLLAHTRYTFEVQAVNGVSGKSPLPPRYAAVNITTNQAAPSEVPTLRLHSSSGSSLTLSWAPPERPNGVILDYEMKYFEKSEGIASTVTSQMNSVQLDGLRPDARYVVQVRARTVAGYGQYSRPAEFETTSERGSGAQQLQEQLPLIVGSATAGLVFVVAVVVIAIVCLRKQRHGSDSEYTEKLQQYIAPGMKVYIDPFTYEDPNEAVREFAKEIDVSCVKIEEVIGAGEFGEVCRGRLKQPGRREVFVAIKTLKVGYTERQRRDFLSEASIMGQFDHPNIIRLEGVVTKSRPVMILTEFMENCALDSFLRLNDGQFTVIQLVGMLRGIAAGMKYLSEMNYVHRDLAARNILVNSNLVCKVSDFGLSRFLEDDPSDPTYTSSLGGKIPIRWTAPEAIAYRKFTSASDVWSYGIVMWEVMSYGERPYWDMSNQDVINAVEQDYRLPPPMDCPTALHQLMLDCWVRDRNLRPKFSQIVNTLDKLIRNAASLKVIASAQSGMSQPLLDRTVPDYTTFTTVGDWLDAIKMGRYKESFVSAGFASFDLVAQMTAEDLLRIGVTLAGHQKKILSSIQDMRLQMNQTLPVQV
Procedure: as §1

PIM1, sequence (P11309 whole entry): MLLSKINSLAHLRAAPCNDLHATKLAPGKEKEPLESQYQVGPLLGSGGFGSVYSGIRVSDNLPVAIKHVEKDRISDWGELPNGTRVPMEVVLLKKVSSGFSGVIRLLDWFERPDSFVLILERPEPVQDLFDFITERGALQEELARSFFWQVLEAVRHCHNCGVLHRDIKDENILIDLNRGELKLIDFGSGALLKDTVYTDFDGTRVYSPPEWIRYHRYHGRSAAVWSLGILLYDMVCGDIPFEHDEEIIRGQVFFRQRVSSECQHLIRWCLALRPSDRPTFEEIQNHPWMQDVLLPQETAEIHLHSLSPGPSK
PAK6, sequence (Q9NQU5 whole entry): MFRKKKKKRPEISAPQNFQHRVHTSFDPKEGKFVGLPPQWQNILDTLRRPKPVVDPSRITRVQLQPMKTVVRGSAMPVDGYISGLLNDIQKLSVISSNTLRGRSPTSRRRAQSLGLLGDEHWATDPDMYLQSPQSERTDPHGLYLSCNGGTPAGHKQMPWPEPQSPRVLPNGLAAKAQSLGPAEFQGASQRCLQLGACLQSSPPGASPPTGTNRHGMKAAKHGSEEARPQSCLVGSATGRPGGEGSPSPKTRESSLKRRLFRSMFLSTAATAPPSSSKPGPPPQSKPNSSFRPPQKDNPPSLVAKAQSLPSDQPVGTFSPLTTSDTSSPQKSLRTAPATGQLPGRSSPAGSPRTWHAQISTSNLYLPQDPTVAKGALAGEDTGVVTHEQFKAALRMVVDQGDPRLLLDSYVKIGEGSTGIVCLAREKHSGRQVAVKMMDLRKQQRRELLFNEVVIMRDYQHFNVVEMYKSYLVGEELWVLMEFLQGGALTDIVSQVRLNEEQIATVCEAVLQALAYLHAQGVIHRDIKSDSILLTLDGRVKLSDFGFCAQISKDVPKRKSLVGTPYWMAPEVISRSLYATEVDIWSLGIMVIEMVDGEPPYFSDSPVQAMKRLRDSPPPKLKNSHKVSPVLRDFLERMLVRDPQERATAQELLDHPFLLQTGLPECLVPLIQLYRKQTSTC
CAMKKb, sequence (Q96RR4 whole entry): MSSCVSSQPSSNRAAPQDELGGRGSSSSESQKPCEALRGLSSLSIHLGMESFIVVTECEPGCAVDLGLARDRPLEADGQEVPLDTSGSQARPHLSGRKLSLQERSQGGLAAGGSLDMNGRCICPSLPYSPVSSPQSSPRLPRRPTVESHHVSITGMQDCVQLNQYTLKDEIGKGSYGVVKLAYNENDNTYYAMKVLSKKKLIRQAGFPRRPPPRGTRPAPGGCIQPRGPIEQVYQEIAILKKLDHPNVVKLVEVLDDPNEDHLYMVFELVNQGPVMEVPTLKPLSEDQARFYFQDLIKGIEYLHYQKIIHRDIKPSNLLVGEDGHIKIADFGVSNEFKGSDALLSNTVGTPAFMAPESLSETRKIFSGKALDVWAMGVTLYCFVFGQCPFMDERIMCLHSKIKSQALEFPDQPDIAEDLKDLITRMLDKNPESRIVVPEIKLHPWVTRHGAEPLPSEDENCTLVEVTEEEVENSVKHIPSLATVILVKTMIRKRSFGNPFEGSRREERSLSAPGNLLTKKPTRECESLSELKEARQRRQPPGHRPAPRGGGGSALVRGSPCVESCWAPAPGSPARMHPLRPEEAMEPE
JNK1, sequence (P45983 whole entry): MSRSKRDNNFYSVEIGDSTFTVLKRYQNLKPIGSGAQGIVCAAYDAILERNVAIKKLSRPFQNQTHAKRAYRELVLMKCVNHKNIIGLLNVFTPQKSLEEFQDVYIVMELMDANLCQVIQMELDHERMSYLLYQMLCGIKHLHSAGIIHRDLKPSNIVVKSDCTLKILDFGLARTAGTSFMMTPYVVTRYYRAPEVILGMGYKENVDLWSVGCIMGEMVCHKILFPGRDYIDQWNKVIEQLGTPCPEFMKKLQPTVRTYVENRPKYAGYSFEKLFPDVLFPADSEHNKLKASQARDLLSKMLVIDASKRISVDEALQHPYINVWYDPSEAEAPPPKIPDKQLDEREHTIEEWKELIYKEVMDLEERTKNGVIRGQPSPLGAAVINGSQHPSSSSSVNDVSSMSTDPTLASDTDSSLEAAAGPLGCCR

SMILES | remaining activity at 10 µM [1] [%] | remaining activity at 10 µM [2] [%] | remaining activity at 10 µM [3] [%] | remaining activity at 10 µM [4] [%] | remaining activity at 10 µM [5] [%] | remaining activity at 10 µM [6] [%] | remaining activity at 10 µM [7] [%]
C[C@H](c1ccccc1)n1c(=O)[nH]c2ncc(-c3ccccc3)nc21 [Compound 14, (R)-6-Phenyl-1-(1-phenylethyl)-1H-imidazo[4,5-b]pyrazin-2(3H)-one] | 97 | 86 | 94 | 72 | 72 | 88 | 102
O=c1[nH]c2ncc(-c3ccc(F)cc3)nc2n1C1CCCCC1 [Compound 12, 1-Cyclohexyl-6-(4-fluorophenyl)-1H-imidazo[4,5-b]pyrazin-2(3H)-one] | 95 | 104 | 96 | 100 | 82 | 106 | 110
O=c1[nH]c2ncc(-c3ccc(F)cc3)nc2n1CC1CC1 [Compound 10] | 100 | 98 | 90 | 90 | 79 | 98 | 92
CC(c1ccccc1)n1c(=O)[nH]c2ncc(-c3ccc(F)cc3)nc21 (stereo not shown) [Compound 1] | 95 | 101 | 100 | 82 | 80 | 89 | 113
